# From patent publication US20260138976A1 (Hoffmann-La Roche Inc., priority 2022, published 2026)
# Key:
# [1] = test system: primary human T-cells; assay: IL2 secretion measurements (24 h, CD3-stimulated T-cells, PBS counter screen); format: cell-based; conditions: for Emax IL2 (% activation): CD3 condition, normalised to DMSO (neutral) and 20 μM reference compound A1 = 100%; for EC50: Homo sapiens, T-cell, CD3-stimulated primary human T-cells, IL2 secretion, fitted sigmoidal curve, read-out: Tcell IL2 CD3 EC50
# In short: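 Expanded primary human T-cells (100k/well) were plated on anti-CD3-coated or PBS-only plates with compound in a 5–6 point dose response (top 20 or 10 μM final, 3.333-fold, 0.2% DMSO). IL-2 in 24 h supernatants was quantified by ProQuantum immunoassay or ELISA. Values were normalized to DMSO and 20 μM reference compound A1 (100%), giving EC50 and Emax.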
# [2] = biological target: T1, DGKα (hDGKalpha(1-735)-N-His) (Homo sapiens, UniProt P23743); assay: In vitro DGK inhibition assay, DGKalpha ADP Glo (in house); format: biochemical; conditions: 4 nM DGKα, 25 μM ATP, 125 uM DLG in liposomes, 1 hour reaction
# T1 construct: hDGKalpha(1-735)-N-His; His (N); made in house; host or cells: Sf21 insect cells (baculovirus)
# In short: (§1)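 Full-length His-tagged human DGKα (4 nM) or DGKζ (2 nM), expressed in Sf21 cells, phosphorylated 125 µM DLG in PS/PC liposomes with ATP at 25 µM (α) or 50 µM (ζ) for 1 h. ADP was measured by ADP-Glo luminescence. Compounds were tested as 11-point 1:3 series in 2% DMSO.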
# [3] = biological target: T2, DGKζ (hDGKzeta(1-928)-N-His) (Homo sapiens, UniProt Q13574); assay: In vitro DGK inhibition assay, DGKzeta ADP Glo (in house); format: biochemical; conditions: 2 nM DGKζ, 50 μM ATP, 125 uM DLG in liposomes, 1 hour reaction
# T2 construct: hDGKzeta(1-928)-N-His; His (N); made in house; host or cells: Sf21 insect cells (baculovirus)
# In short: as §1
# T2 sequence (Q13574 whole entry): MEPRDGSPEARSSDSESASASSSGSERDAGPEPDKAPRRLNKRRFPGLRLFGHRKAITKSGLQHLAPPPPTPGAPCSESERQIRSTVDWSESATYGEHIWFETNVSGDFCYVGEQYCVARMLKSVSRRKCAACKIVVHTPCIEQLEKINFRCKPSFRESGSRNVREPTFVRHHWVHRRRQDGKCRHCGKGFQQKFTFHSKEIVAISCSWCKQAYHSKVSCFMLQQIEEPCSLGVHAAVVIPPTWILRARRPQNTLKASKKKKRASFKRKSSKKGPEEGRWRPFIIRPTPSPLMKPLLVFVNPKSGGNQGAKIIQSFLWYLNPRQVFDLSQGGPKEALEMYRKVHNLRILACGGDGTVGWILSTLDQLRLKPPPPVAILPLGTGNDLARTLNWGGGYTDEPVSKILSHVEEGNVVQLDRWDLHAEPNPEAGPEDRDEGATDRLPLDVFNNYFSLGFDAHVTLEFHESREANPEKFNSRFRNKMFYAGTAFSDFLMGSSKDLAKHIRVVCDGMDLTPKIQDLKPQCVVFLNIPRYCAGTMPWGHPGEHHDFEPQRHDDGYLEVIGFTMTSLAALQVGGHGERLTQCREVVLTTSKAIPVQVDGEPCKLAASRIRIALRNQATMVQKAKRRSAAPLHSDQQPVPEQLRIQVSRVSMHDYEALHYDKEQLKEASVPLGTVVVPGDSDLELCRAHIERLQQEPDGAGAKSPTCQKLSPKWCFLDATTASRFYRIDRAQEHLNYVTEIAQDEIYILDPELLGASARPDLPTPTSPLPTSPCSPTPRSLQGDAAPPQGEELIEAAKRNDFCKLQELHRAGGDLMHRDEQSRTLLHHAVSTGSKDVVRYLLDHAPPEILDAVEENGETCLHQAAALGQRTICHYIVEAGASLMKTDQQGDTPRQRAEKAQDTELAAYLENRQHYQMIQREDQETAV
# T1 sequence (P23743 whole entry): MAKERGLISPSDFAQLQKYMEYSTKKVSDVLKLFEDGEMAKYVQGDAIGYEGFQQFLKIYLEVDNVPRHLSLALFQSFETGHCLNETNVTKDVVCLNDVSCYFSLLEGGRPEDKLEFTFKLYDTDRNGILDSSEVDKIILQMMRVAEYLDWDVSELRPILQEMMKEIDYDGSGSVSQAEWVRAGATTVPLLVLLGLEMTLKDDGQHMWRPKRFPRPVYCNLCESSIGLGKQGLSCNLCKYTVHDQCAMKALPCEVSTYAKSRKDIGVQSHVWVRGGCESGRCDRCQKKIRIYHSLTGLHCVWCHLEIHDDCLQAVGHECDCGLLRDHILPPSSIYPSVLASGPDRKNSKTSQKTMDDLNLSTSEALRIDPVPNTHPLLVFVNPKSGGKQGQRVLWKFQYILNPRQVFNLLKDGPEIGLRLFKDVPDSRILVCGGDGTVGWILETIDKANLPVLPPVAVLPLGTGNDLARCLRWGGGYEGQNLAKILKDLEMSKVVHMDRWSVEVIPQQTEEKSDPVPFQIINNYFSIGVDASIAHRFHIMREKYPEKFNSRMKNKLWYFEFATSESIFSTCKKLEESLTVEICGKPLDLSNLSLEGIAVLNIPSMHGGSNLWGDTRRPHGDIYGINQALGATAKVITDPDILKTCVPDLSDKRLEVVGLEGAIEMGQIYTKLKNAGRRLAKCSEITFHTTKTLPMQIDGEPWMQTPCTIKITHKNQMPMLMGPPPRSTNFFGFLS
IC50 [2],IC50 [3],SMILES,Emax IL2 (% activation) [1],EC50 [1]
2520 nM,732 nM,"N#CC1(c2nnc(-c3ccc4c(c3)N(Cc3ccc(-c5ccc(OC(F)(F)F)cn5)cc3)C(=O)[C@@H](N)CS4(=O)=O)o2)CCC1 [Example 172, 1-[5-[(3R)-3-amino-1,1,4-trioxo-5-[[4-[5-(trifluoromethoxy)-2-pyridyl]phenyl]methyl]-2,3-dihydro-1λ^6,5-benzothiazepin-7-yl]-1,3,4-oxadiazol-2-yl]cyclobutanecarbonitrile]",120 % activation,1090 nM
961 nM,734 nM,"CC(C)(CC#N)c1nnc(-c2ccc3c(c2)N(Cc2ccc(-c4ccc(OC(F)(F)F)cn4)cc2)C(=O)[C@@H](N)CS3(=O)=O)o1 [Example 175, 3-[5-[(3R)-3-amino-1,1,4-trioxo-5-[[4-[5-(trifluoromethoxy)-2-pyridyl]phenyl]methyl]-2,3-dihydro-1λ^6,5-benzothiazepin-7-yl]-1,3,4-oxadiazol-2-yl]-3-methyl-butanenitrile]",52 % activation,> 10000 nM

# Second part, the compound before the results:
SMILES,IC50 [2],IC50 [3],Emax IL2 (% activation) [1],EC50 [1]
"N[C@H]1CS(=O)(=O)c2ccc(-c3nnc(N4CCC(F)(F)CC4)o3)cc2N(Cc2ccc(-n3ccc(C(F)(F)F)n3)cc2)C1=O [Example 162, (3R)-3-amino-7-[5-(4,4-difluoro-1-piperidyl)-1,3,4-oxadiazol-2-yl]-1,1-dioxo-5-[[4-[3-(trifluoromethyl)pyrazol-1-yl]phenyl]methyl]-2,3-dihydro-1λ^6,5-benzothiazepin-4-one]",> 62500 nM,1100 nM,185 % activation,1410 nM
"CC(C)(c1nnc(-c2ccc3c(c2)N(Cc2ccc(-c4ccc(OC(F)(F)F)cn4)cc2)C(=O)[C@@H](N)CS3(=O)=O)o1)C(F)(F)F [Example 165, (3R)-3-amino-1,1-dioxo-7-[5-(2,2,2-trifluoro-1,1-dimethyl-ethyl)-1,3,4-oxadiazol-2-yl]-5-[[4-[5-(trifluoromethoxy)-2-pyridyl]phenyl]methyl]-2,3-dihydro-1λ^6,5-benzothiazepin-4-one]",1140 nM,2220 nM,123 % activation,1330 nM
"N[C@H]1CS(=O)(=O)c2ccc(-c3nnc(C(F)C(F)(F)F)o3)cc2N(Cc2ccc(-c3noc(C4CC4)n3)cc2)C1=O (stereo partly drawn) [Example 168, (3R)-3-amino-5-[[4-(5-cyclopropyl-1,2,4-oxadiazol-3-yl)phenyl]methyl]-1,1-dioxo-7-[5-(1,2,2,2-tetrafluoroethyl)-1,3,4-oxadiazol-2-yl]-2,3-dihydro-1λ^6,5-benzothiazepin-4-one]",> 62500 nM,1600 nM,67 % activation,4870 nM
CC(O)(c1nnc(-c2ccc3c(c2)N(Cc2ccc(-c4noc(C5CC5)n4)cc2)C(=O)[C@@H](N)CS3(=O)=O)o1)C(F)(F)F (stereo partly shown) [Example 170],> 62500 nM,2000 nM,79 % activation,8550 nM
N[C@H]1CS(=O)(=O)c2ccc(-c3nnc(C(N)(C4CC4)C(F)(F)F)o3)cc2N(Cc2ccc(-c3noc(C4CC4)n3)cc2)C1=O (stereo partly shown) [Example 171],> 60000 nM,722 nM,122 % activation,3780 nM
